In US10221172B2, “Benzothiazole and benzisothiazole-substituted compounds as mGluR4 allosteric potentiators, compositions, and methods of treating neurological dysfunction” (Vanderbilt University, priority 2015, dated 2019):

Biological target: human mGluR4 (Homo sapiens (Human), UniProt Q14833)
Test: mGluR4 potentiation assay, CHO cells transfected with human mGluR4, Ca2+-sensitive dye, EC20 agonist
Assay type: cell-based
Conditions: potentiation of mGluR4
Procedure: The disclosed compounds and compositions can be evaluated for their ability to act as a potentiator of metabotropic glutamate receptor activity, in particular mGluR4 activity, by any suitable known methodology known in the art. For example, Chinese Hamster Ovary (CHO) cells transfected with human mGluR4 or HEK cells co-transfected with rat mGluR4 and the G-protein regulated Inwardly Rectifying Potassium channel (GIRK) were plated in clear bottom assay plates for assay in a Hamamatsu FDSS Fluorometric Plate Reader. The cells were loaded with either a Ca2+-sensitive fluorescent dye or the thallium responsive dye and the plates were washed and placed into a suitable kinetic plate reader. For human mGluR4 assays, a fluorescence baseline was established for 3-5 seconds, the disclosed compounds were then added to the cells, and the response in cells was measured. Approximately two and a half minutes later, a concentration of mGluR4 orthosteric agonist (e.g. glutamate or L-AP4) eliciting approximately 20% (EC20) of the maximal agonist response was added to the cells, and the response was measured. Two minutes later, a concentration of mGluR4 agonist (e.g. glutamate or L-AP4) eliciting 80% (EC80) of the maximal agonist response was added to the cells, and the response was measured. For rat mGluR4/GIRK experiments, a baseline was established for approximately five seconds, disclosed compounds were added, and either an EC20 or EC80 concentration of agonist was added approximately two and one half minutes later. Potentiation of the agonist response of mGluR4 by the disclosed compounds was observed as an increase in response to the EC20 concentration of agonist in the presence of compound compared to the response to agonist in the absence of compound. Similarly, antagonism of the agonist response of mGluR4 by the disclosed compounds was observed as a decrease in response to the EC80 concentration of agonist in the presence of compound compared to the response to agonist in the absence of compound.
The above described assay operated in two modes. In the first mode, a range of concentrations of the disclosed compounds are added to cells, followed by a single fixed concentration of agonist. If the compound acts as a potentiatior, an EC50 value for potentiation and a maximum extent of potentiation by the compound at this concentration of agonist is determined by non-linear curve fitting. If the compound acts as a noncompetitive antagonist, an IC50 value is determined by non-linear curve fitting. In the second mode, several fixed concentrations of the disclosed compounds are added to various wells on a plate, followed by a range in concentrations of agonist for each concentration of disclosed compound. The EC50 values for the agonist at each concentration of compound are determined by non-linear curve fitting. A decrease in the EC50 value of the agonist with increasing concentrations of the sample compound (a leftward shift of the agonist concentration-response curve) is an indication of the degree of mGluR4 potentiation at a given concentration of the sample compound. A decrease in the maximal response of the agonist with increasing concentrations of the sample compounds, with or without a rightward shift in agonist potency, is an indication of the degree of noncompetitive antagonism at mGluR4. The second mode also indicates whether the sample compounds also affect the maximum response to mGluR4 to agonists.

[1] = main compound table, species not given
[2] = summary list repeated at the end of the table, species not stated

Sequence of human mGluR4 (Q14833 33-912): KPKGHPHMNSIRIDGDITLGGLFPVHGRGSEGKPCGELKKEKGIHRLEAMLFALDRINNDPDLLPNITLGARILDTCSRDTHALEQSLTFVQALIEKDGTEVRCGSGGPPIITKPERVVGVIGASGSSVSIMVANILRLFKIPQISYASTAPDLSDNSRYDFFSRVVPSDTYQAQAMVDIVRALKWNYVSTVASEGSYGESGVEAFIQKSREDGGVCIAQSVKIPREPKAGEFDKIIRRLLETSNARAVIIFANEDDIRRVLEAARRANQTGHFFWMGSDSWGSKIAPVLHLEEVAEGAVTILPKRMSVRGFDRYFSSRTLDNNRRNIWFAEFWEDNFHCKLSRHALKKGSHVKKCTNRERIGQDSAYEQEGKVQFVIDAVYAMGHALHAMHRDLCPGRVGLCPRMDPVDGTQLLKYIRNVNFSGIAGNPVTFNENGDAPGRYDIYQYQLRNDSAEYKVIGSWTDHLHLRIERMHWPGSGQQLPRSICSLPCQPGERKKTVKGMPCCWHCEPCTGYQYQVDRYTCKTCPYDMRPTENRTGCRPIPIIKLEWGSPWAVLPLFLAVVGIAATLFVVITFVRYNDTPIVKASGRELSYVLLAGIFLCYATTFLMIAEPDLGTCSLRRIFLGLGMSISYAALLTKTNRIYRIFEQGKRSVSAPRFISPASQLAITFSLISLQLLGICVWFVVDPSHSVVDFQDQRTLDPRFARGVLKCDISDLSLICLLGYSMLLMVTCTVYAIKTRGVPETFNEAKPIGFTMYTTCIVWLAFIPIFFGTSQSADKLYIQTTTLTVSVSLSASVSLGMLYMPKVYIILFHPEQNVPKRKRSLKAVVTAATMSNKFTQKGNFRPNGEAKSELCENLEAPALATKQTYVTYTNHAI

EC50 [1] [nM]	EC50 [2] [nM]	Structure (SMILES)
164	164	CN(C(=O)c1nsc2cc(Nc3n[nH]c4cccnc34)ccc12)C1CC(F)(F)C1 [Example 15, 6-((1H-pyrazolo[4,3-b]pyridin-3-yl)amino)-N-(3,3-difluorocyclobutyl)-N-methylbenzo[d] isothiazole-3-carboxamide]
85	85	O=C(c1nsc2cc(Nc3n[nH]c4cccnc34)ccc12)N1CCSCC1 [Example 16, (6-((1H-pyrazolo [4,3-b]pyridin-3-yl)amino)benzo[d]isothiazol-3-yl)(thiomorpholino) methanone]
607	607	O=C(c1nsc2cc(Nc3n[nH]c4cccnc34)ccc12)N1CCCOCC1 [Example 17, (6-((1H-pyrazolo[4,3-b]pyridin-3-yl)amino)benzo[d]isothiazol-3-yl)(1,4-oxazepan-4-yl)methanone]
517	517	CC1CC(C)CN(C(=O)c2nsc3cc(Nc4n[nH]c5cccnc45)ccc23)C1 (centres unmarked) [Example 18, (6-((1H-pyrazolo [4,3-b]pyridin-3-yl)amino)benzo[d]isothiazol-3-yl)(3,5-dimethylpiperidin-1-yl) methanone]
408	408	CC1CCN(C(=O)c2nsc3cc(Nc4n[nH]c5cccnc45)ccc23)CC1 [Example 19, (6-((1H-pyrazolo [4,3-b]pyridin-3-yl)amino)benzo[d]isothiazol-3-yl) (4-methylpiperidin-1-yl)methanone]
249	249	O=C(c1nsc2cc(Nc3n[nH]c4cccnc34)ccc12)N1CCC(F)CC1 [Example 20, (6-((1H-pyrazolo [4,3-b]pyridin-3-yl)amino)benzo [d]isothiazol-3-yl) (4-fluoropiperidin-1-yl)methanone]
50	50	O=C(c1nsc2cc(Nc3n[nH]c4cccnc34)ccc12)N1CCC(C(F)(F)F)CC1 [Example 21, (6-((1H-pyrazolo [4,3-b]pyridin-3-yl)amino)benzo[d]isothiazol-3-yl) (4-(trifluoromethyl)piperidin-1-yl) methanone]
884	884	CC(C)(C)Cc1nsc2cc(Nc3n[nH]c4ncccc34)ccc12 [Example 22, 3-neopentyl-N-(1H-pyrazolo[3,4-b]pyridin-3-yl)benzo[d] isothiazol-6-amine]
56	56	CCCc1nsc2cc(Nc3n[nH]c4cccnc34)ccc12 [Example 23, 3-propyl-N-(1H-pyrazolo [4,3-b]pyridin-3-yl)benzo[d]isothiazol-6-amine]
23.4	23.4	CCCc1nsc2cc(Nc3n[nH]c4nccnc34)ccc12 [Example 24, 3-propyl-N-(1H-pyrazolo[3,4-b]pyrazine-3-yl)benzo[d]isothiazol-6-amine]
–	329	CC(C)(C)c1nsc2cc(Nc3n[nH]c4cccnc34)ccc12 [Example 25, 3-(tert-butyl)-N-(1H-pyrazolo[4,3-b]pyridin-3-yl)benzo[d]isothiazol-6-amine]
220	220	CCCc1nsc2cc(Nc3n[nH]c4ncccc34)ccc12 [Example 26, 3-propyl-N-(1H-pyrazolo[3,4-b]pyridin-3-yl)benzo[d]isothiazol-6-amine]
99.5	99.5	CC(C)(C)Cc1nsc2cc(Nc3n[nH]c4nccnc34)cnc12 [Example 27, 3-neopentyl-N-(1H-pyrazolo[3,4-b]pyrazin-3-yl) isothiazole[4,5-b] pyridin-6-amine]
119	119	CC(C)(C)Cc1nsc2cc(Nc3n[nH]c4ncccc34)cnc12 [Example 28, 3-neopentyl-N-(1H-pyrazolo[3,4-b]pyridin-3-yl) isothiazolo[4,5-b] pyridin-6-amine]
1240	1240	FC(F)(F)c1nsc2cc(Nc3n[nH]c4ncccc34)ccc12 [Example 29, N-(1H-pyrazolo[3,4-b]pyridin-3-yl)-3-(trifluoromethyl)benzo[d] isothiazol-6-amine]
42.6	42.6	O=C(NC1CC(F)(F)C1)c1nsc2cc(Nc3n[nH]c4nccnc34)ccc12 [Example 30, 6-((1H-pyrazolo[3,4-b]pyrazin-3-yl)amino)-N-(3,3-difluorocyclobutyl) benzo[d] isothiazole-3-carboxamide]
1210	1210	CN1CCC2(CCN(C(=O)c3nsc4cc(Nc5n[nH]c6nccnc56)ccc34)CC2)C1=O [Example 31, 8-(6-((1H-pyrazolo[3,4-b]pyrazin-3-yl)amino)benzo[d]isothiazole-3-carbonyl)-2-methyl-2,8-diazaspiro[4.5]decan-1-one]
1530	1530	CN1CCN(C(=O)c2nsc3cc(Nc4n[nH]c5nccnc45)ccc23)CC1=O [Example 32, 4-(6-((1H-pyrazolo[3,4-b]pyrazin-3-yl)amino)benzo [d]isothiazole-3-carbonyl)-1-methylpiperazin-2-one]
827	827	O=C(c1nsc2cc(Nc3n[nH]c4nccnc34)ccc12)N1CCC(F)(F)CC1 [Example 33, (6-((1H-pyrazolo[3,4-b]pyrazin-3-yl)amino)benzo[d]isothiazol-3-yl)(4,4-difluoropiperidin-1-yl) methanone]
199	199	CC(=O)N1CCC(c2nsc3cc(Nc4n[nH]c5cccnc45)ccc23)CC1 [Example 35, 1-(4-(6-((1H-pyrazolo[4,3-b]pyridin-3-yl)amino)benzo[d]isothiazol-3-yl)piperidin-1-yl)ethan-1-one]
78.2	78.2	c1cnc2c(Nc3ccc4c(C5CC5)nsc4c3)n[nH]c2c1 [Example 36, 3-cyclopropyl-N-(1H-pyrazolo [4,3-b]pyridin-3-yl) benzo[d]isothiazol-6-amine]
61.1	61.1	c1cnc2c(Nc3ccc4c(C5CC5)nsc4c3)n[nH]c2n1 [Example 37, 3-cyclopropyl-N-(1H-pyrazolo [3,4-b]pyrazin-3-yl)benzo [d]isothiazol-6-amine]
1030	1030	CC(C)(O)c1nsc2cc(Nc3n[nH]c4cccnc34)ccc12 [Example 38, 2-(6-((1H-pyrazolo [4,3-b]pyridin-3-yl)amino)benzo[d]isothiazol-3-yl)propan-2-ol]
157	157	Cc1nsc2cc(Nc3n[nH]c4cccnc34)cnc12 [Example 39, 3-methyl-N-(1H-pyrazolo [4,3-b]pyridin-3-yl)isothiazolo[4,5-b] pyridin-6-amine]
54.2	54.2	CCC(C)c1nsc2cc(Nc3n[nH]c4cccnc34)cnc12 (centres unmarked) [Example 40, 3-(sec-butyl)-N-(1H-pyrazolo[4,3-b]pyridin-3-yl)isothiazolo[4,5-b] pyridin-6-amine]
38.3	38.3	CCc1nsc2cc(Nc3n[nH]c4cccnc34)cnc12 [Example 41, 3-ethyl-N-(1H-pyrazolo[4,3-b]pyridin-3-yl)isothiazolo [4,5-b]pyridin-6-amine]
100	100	CCc1nsc2cc(Nc3n[nH]c4ncccc34)cnc12 [Example 42, 3-ethyl-N-(1H-pyrazolo[3,4-b]pyridin-3-yl)isothiazolo [4,5-b]pyridin-6-amine]
226	226	c1ccc(-c2nsc3cc(Nc4n[nH]c5cccnc45)ccc23)cc1 [Example 43, 3-phenyl-N-(1H-pyrazolo [4,3-b]pyridin-3-yl)benzo[d]isothiazol-6-amine]
2040	2040	c1ccc(-c2nsc3cc(Nc4n[nH]c5ncccc45)ccc23)cc1 [Example 44, 3-phenyl-N-(1H-pyrazolo [3,4-b]pyridin-3-yl)benzo[d]isothiazol-6-amine]
216	216	c1cnc2c(Nc3ccc4c(-c5ccsc5)nsc4c3)n[nH]c2c1 [Example 45, N-(1H-pyrazolo[4,3-b]pyiridn-3-yl)-3-(thiophen-3-yl)benzo[d] isothiazol-6-amine]
